Laboratory results: patent US20130203778A1, “PHARMACEUTICAL COMPOSITION COMPRISING A PYRIMIDINEONE DERIVATIVE” (Glenmark Pharmaceuticals S.A., priority 2010, published 2013)

Legend:
[1] = Qualitative solubility of Compound I in water and organic solvents; assay type: physicochemical
[2] = Solubility of Compound I with various hydrophilic carriers and in solid dispersion composition form at 25° C. (HPLC assay); assay type: physicochemical
Description: Buffers were prepared as per USP. Compound I (100 mg) equivalent was added to various buffers (100 ml) in presence of various hydrophilic carriers. The samples were sonicated for 15 minutes. A solid dispersion composition form of Compound I was also evaluated for solubility on similar lines. Quantification was done by assay method on HPLC by comparison with standard solution. The assay provided the relative amount of drug (mg/ml) in the sample solution. The results were extrapolated to represent the solubility in 900 ml of buffer solutions.
Preparation of Test solution: Compound I (100 mg) was added to various buffers (100 ml) in presence of various surfactants. The samples were sonicated for 15 minutes. Evaluation was done by assay method on HPLC by comparison with standard solution.
Mixture of 0.01M Ammonium Acetate Buffer and Acetonitrile in the ratio of 20:80% v/v.
Mixture of water and acetonitrile in the ratio of 20:80 v/v.
Column: Hypersil BDS C18, 150×4.6 mm, 5 μm
Column temperature: 25° C.

[3] = with Cetrimide, ratio (w/w) 1:10
[4] = with Cremophor EL, ratio (w/w) 1:10
[5] = with Gelucire 44/14, ratio (w/w) 1:10
[6] = with Hydroxypropyl beta-cyclodextrin, ratio (w/w) 1:10, BLD = Below limit of detection (0.01 ppm)
[7] = with Labrafil, ratio (w/w) 1:10
[8] = with Labrasol, ratio (w/w) 1:10
[9] = with Poloxamer 407, Compound I to carrier ratio (w/w) 1:1
[10] = with Sodium lauryl sulphate, ratio (w/w) 1:5, BLD = Below limit of detection (0.01 ppm)
[11] = with Tween 80, ratio (w/w) 1:10
[12] = with Tween 80, ratio (w/w) 1:30
[13] = with Vitamin E TPGS, ratio (w/w) 1:10
[14] = without hydrophilic carrier (1:0), BLD = Below limit of detection (0.01 ppm)

Solubility in acetone [1]: freely soluble
Solubility in chloroform [1]: freely soluble
Solubility in ethanol [1]: very slightly soluble
Solubility in methanol [1]: slightly soluble
Solubility in methylene dichloride [1]: freely soluble
Solubility in water ([1]; aqueous media having different pH ranging over 1.2 to 6.8): practically insoluble
Solubility, Acetate Buffer pH 4.5 [2, 3]: 0.27 mg/900 ml
Solubility, Phosphate Buffer pH 6.8 [2, 3]: 0.45 mg/900 ml
Solubility, Simulated gastric fluid pH 1.2 [2, 3]: 0.54 mg/900 ml
Solubility, Acetate Buffer pH 4.5 [2, 4]: 2.61 mg/900 ml
Solubility, Phosphate Buffer pH 6.8 [2, 4]: 2.52 mg/900 ml
Solubility, Simulated gastric fluid pH 1.2 [2, 4]: 0.54 mg/900 ml
Solubility, Acetate Buffer pH 4.5 [2, 5]: 1.17 mg/900 ml
Solubility, Phosphate Buffer pH 6.8 [2, 5]: 0.99 mg/900 ml
Solubility, Simulated gastric fluid pH 1.2 [2, 5]: 0.09 mg/900 ml
Solubility, Acetate Buffer pH 4.5 ([2]; with HPMC, ratio (w/w) 1:5): 0.18 mg/900 ml
Solubility, Phosphate Buffer pH 6.8 ([2]; with HPMC, ratio (w/w) 1:5): 0.81 mg/900 ml
Solubility, Simulated gastric fluid pH 1.2 ([2]; with HPMC, ratio (w/w) 1:5): 0.72 mg/900 ml
Solubility, Acetate Buffer pH 4.5 [2, 6]: BLD
Solubility, Phosphate Buffer pH 6.8 [2, 6]: BLD
Solubility, Simulated gastric fluid pH 1.2 [2, 6]: BLD
Solubility, Acetate Buffer pH 4.5 [2, 7]: 0.27 mg/900 ml
Solubility, Phosphate Buffer pH 6.8 [2, 7]: 0.18 mg/900 ml
Solubility, Simulated gastric fluid pH 1.2 [2, 7]: 0.09 mg/900 ml
Solubility, Acetate Buffer pH 4.5 [2, 8]: 0.18 mg/900 ml
Solubility, Phosphate Buffer pH 6.8 [2, 8]: 0.72 mg/900 ml
Solubility, Simulated gastric fluid pH 1.2 [2, 8]: 0.36 mg/900 ml
Solubility, Acetate Buffer pH 4.5 [2, 9]: 0.18 mg/900 ml
Solubility, Phosphate Buffer pH 6.8 [2, 9]: 0.09 mg/900 ml
Solubility, Simulated gastric fluid pH 1.2 [2, 9]: 0.27 mg/900 ml
Solubility, Acetate Buffer pH 4.5 [2, 10]: BLD
Solubility, Phosphate Buffer pH 6.8 [2, 10]: BLD
Solubility, Simulated gastric fluid pH 1.2 [2, 10]: BLD
Solubility, Acetate Buffer pH 4.5 [2, 11]: 3.06 mg/900 ml
Solubility, Phosphate Buffer pH 6.8 [2, 11]: 3.69 mg/900 ml
Solubility, Simulated gastric fluid pH 1.2 [2, 11]: 0.45 mg/900 ml
Solubility, Acetate Buffer pH 4.5 [2, 12]: 8.82 mg/900 ml
Solubility, Phosphate Buffer pH 6.8 [2, 12]: 15.84 mg/900 ml
Solubility, Simulated gastric fluid pH 1.2 [2, 12]: 1.44 mg/900 ml
Solubility, Acetate Buffer pH 4.5 [2, 13]: 1.35 mg/900 ml
Solubility, Phosphate Buffer pH 6.8 [2, 13]: 1.80 mg/900 ml
Solubility, Simulated gastric fluid pH 1.2 [2, 13]: 0.63 mg/900 ml
Solubility, Acetate Buffer pH 4.5 [2, 14]: BLD
Solubility, Phosphate Buffer pH 6.8 [2, 14]: BLD
Solubility, Simulated gastric fluid pH 1.2 [2, 14]: BLD**
Compound: COc1cccc(/C=C/c2nc3sccn3c(=O)c2-c2ccc(OC(F)(F)F)cc2)c1OCC1CC1 [Compound I, 7-{(E)-2-[2-(cyclopropylmethoxy)-3-methoxyphenyl]vinyl}-6-(4-trifluoromethoxyphenyl)-5H-[1,3]thiazolo-[3,2-a]pyrimidin-5-one]
